# From patent publication US20150291645A1, “ISOACTEOSIDE DERIVATIVE AND USE THEREOF” (Sinphar Pharmaceutical Co., Ltd., priority 2014, published 2015)
# Assays:
# [1] = test system: Aβ40 degrading enzyme activity in Neuro-2a conditioned medium; test: Aβ40 degradation in Neuro-2a conditioned medium (Human Aβ1-40 immunoassay); format: biochemical, mouse; conditions: 50 μM and 100 μM, 24 hours 37° C., FIG. 5
# Description: Experimental method: 2×10^7 of mouse neuroblastoma cells (Neuro-2a) were placed on a T175 culture medium, and after overnight, the T175 culture medium was replaced with 30 mL of a chemical-defined medium incubating for 24 hours. After 24 hours, the chemical-defined medium incubated with the cells, which was called a conditioned medium, was centrifuged for 5 minutes at 13,000 rpm, and supernatant liquid was obtained. 10 ng of Aβ40 and testing medicine were added to 300 μL of the conditioned medium, and the mixture was reacted at 37° C. for 24 hours. Immunoassay kits (Human Aβ1-40 Immunoassay kits, Cat.KHB3482, Life Technologies) were used to measure the remaining amount of Aβ in each reaction to examine whether the medicine can improve the activity for enzyme in the medium to degrade Aβ. One not adding any testing medicine (i.e. only containing 10 ng of Aβ40) was a control, and the measured level of Aβ was set to 100%. The levels of Aβ after treated by the testing medicine were compared to the control and expressed in percentage. […] The statistical differences between the control and the testing samples were analyzed by Dunnett's multiple comparison test, which “*” represented p<0.05; “**” represented p<0.01; “***” represented p<0.001; and “****” represented p<0.0001.
# β-amyloid peptides (Aβ) = conditions: position of the caffeoyl group (sixth vs fourth), WO 2011/157059 A1; cited from earlier work
SMILES,extracellular Aβ40 degradation [1],activity of inhibiting β-amyloid peptides (Aβ) accumulation (β-amyloid peptides (Aβ))
O=C(/C=C/c1ccc(O)c(O)c1)OCC1OC(OCCc2ccc(O)c(O)c2)C(O)C(O)C1O (centres unmarked) [Sample 9],could effectively improve extracellular Aβ40 degradation,–
C[C@@H]1O[C@@H](O[C@@H]2[C@@H](O)[C@H](OCCc3ccc(O)c(O)c3)O[C@H](COC(=O)/C=C/c3ccc(O)c(O)c3)[C@H]2O)[C@H](O)[C@H](O)[C@H]1O [isoacteoside],–,better
